System: pain after surgical removal of impacted third molars
Test: Phase 2 dental pain study: VAS pain intensity (VAS score, VASPID, VASSPID)
Type: in vivo, human
Parameters: VASPID, Median / VASPID, Mean / VAS pain intensity score, Median / VASSPID-8, Median: scale not given here
Procedure: On Day 1, eligible subjects underwent extraction of 2 or more third molars, at least 1 of which had to be a fully or partially bone-impacted mandibular molar. If only 2 molars were removed, then they had to be ipsilateral.
Subjects assessed their baseline pain intensity (VAS) before receiving study drug (predose, Time 0) and their pain intensity (VAS) and pain relief (5-point categorical scale) at 15, 30, and 45 minutes and 1, 1.5, 2, 3, 4, 5, 6, 7, and 8 hours after Time 0 and immediately before the first dose of rescue medication. The 2-stopwatch method was used to record the time to perceptible and time to meaningful pain relief, respectively. Acetaminophen (1000 mg) was permitted as the initial rescue medication. Subjects were encouraged to wait at least 60 minutes after receiving study drug before taking rescue medication. […] Other restrictions included the following: no alcohol use from 24 hours before surgery until discharge on Day 1; nothing by mouth (NPO) from midnight before surgery until 1 hour after surgery; clear liquids only from 1 hour after surgery until 1 hour after dosing; and advancement of diet 1 hour after dosing according to standard practice.
The secondary efficacy endpoints were as follows: • TOTPAR over 0 to 4 hours (TOTPAR-4) after Time 0 • Visual Analogue Scale (VAS) pain intensity difference (VASPID) at each scheduled time point after Time 0 • Time to onset of analgesia (measured as time to perceptible pain relief confirmed by meaningful pain relief) • VAS pain intensity score at each scheduled time point • VAS summed pain intensity difference (VASSPID) over 0 to 4 hours (VASSPID-4) and over 0 to 8 hours (VASSPID-8) after Time 0 • Pain relief score at each scheduled time point after Time 0 • Peak pain relief • Time to peak pain relief • Time to first perceptible pain relief • Time to meaningful pain relief • Proportion of subjects using rescue medication • Time to first use of rescue medication (duration of analgesia) • Patient's global evaluation of study drug Safety:
For continuous secondary endpoints such as pain intensity score, VASPID at each scheduled time point, peak pain intensity, TOTPAR-4, VASSPID-4, and VASSPID-8, descriptive statistics (e.g., mean, standard error, median, minimum, and maximum) were provided for each treatment regimen. Nominal P values from 2-sample tests comparing the placebo group with other treatment groups were provided, but no formal statistical inferences were drawn on the basis of these tests.
For pain intensity, missing observations were imputed using a baseline-observation-carried-forward (BOCF) approach for subjects who withdrew from the study due to lack of efficacy or an AE/intolerance to study drug. The BOCF imputation was applied in place of all scheduled assessments after the time of early termination due to lack of efficacy or an AE/intolerance to study drug using the baseline observation taken before Time 0.
For subjects who withdrew from the study for reasons other than lack of efficacy or an AE/intolerance to study drug, missing observations for pain intensity and pain relief were imputed using a last-observation-carried-forward (LOCF) approach. The LOCF imputation was applied in place of all scheduled assessments after the time of early termination for reasons other than lack of efficacy or an AE/intolerance to study drug.
For subjects who took any dose of rescue medication, subsequent measures after the first dose of rescue mediation were disregarded. Instead, all scheduled assessments after the first dose of rescue medication were imputed using BOCF and the baseline observation taken before Time 0. (Baseline value for pain relief was 0.)

[1] = 15 minutes after Time 0, ITT, 100-mm VAS

`Cc1ccc(-c2cc(C(F)(F)F)nn2-c2ccc(S(N)(=O)=O)cc2)cc1` [Celecoxib] was tested, and the “VASSPID-4, Mean (SD)” value (0 to 4 hours after Time 0, ITT) was 127.971 (99.1934), the “VASSPID-4, Median” value (0 to 4 hours after Time 0, ITT) was 140.250 and the “VASSPID-8, Mean (SD)” value (0 to 8 hours after Time 0, ITT) was 284.265 (229.4447). For the same molecule, the “VASSPID-8, Median” value (0 to 8 hours after Time 0, ITT) was 346.500, the “VAS pain intensity score, Median” value (15 minutes after Time 0, ITT) was 71.00 and the “VASPID, Median” value (15 minutes after Time 0, ITT) was 1.00. The “VAS pain intensity score, Mean” value [1] was 70.55, the “VASPID, Mean” value [1] was 3.35 and the “VAS pain intensity score, Mean” value (30 minutes after Time 0, ITT) was 67.25. For the same molecule, the “VAS pain intensity score, Median” value (30 minutes after Time 0, ITT) was 66.00, the “VASPID, Mean” value (30 minutes after Time 0, ITT) was 6.65 and the “VASPID, Median” value (30 minutes after Time 0, ITT) was 3.00. For the same molecule, the “VAS pain intensity score, Mean” value (45 minutes after Time 0, ITT) was 57.47, the “VAS pain intensity score, Median” value (45 minutes after Time 0, ITT) was 61.00 and the “VASPID, Mean” value (45 minutes after Time 0, ITT) was 16.43. For the same molecule, the “VASPID, Median” value (45 minutes after Time 0, ITT) was 10.00, the “VAS pain intensity score, Mean” value (1 hour after Time 0, ITT) was 49.08 and the “VAS pain intensity score, Median” value (1 hour after Time 0, ITT) was 50.00. For the same molecule, the “VASPID, Mean” value (1 hour after Time 0, ITT) was 24.82, the “VASPID, Median” value (1 hour after Time 0, ITT) was 17.00 and the “VAS pain intensity score, Mean” value (2 hours after Time 0, ITT) was 36.65. For the same molecule, the “VAS pain intensity score, Median” value (2 hours after Time 0, ITT) was 36.00, the “VASPID, Mean” value (2 hours after Time 0, ITT) was 37.25 and the “VASPID, Median” value (2 hours after Time 0, ITT) was 32.00. For the same molecule, the “VAS pain intensity score, Mean” value (3 hours after Time 0, ITT) was 32.29, the “VAS pain intensity score, Median” value (3 hours after Time 0, ITT) was 28.00 and the “VASPID, Mean” value (3 hours after Time 0, ITT) was 41.61. The “VASPID, Median” value (3 hours after Time 0, ITT) was 50.00, the “VAS pain intensity score, Mean” value (4 hours after Time 0, ITT) was 33.94 and the “VAS pain intensity score, Median” value (4 hours after Time 0, ITT) was 25.00. For the same molecule, the “VASPID, Mean” value (4 hours after Time 0, ITT) was 39.96, the “VASPID, Median” value (4 hours after Time 0, ITT) was 46.00 and the “VAS pain intensity score, Mean” value (5 hours after Time 0, ITT) was 33.69. For the same molecule, the “VAS pain intensity score, Median” value (5 hours after Time 0, ITT) was 22.00, the “VASPID, Mean” value (5 hours after Time 0, ITT) was 40.22 and the “VASPID, Median” value (5 hours after Time 0, ITT) was 50.00. The “VAS pain intensity score, Mean” value (6 hours after Time 0, ITT) was 35.06, the “VAS pain intensity score, Median” value (6 hours after Time 0, ITT) was 20.00 and the “VASPID, Mean” value (6 hours after Time 0, ITT) was 38.84. The “VASPID, Median” value (6 hours after Time 0, ITT) was 50.00, the “VAS pain intensity score, Mean” value (7 hours after Time 0, ITT) was 35.55 and the “VAS pain intensity score, Median” value (7 hours after Time 0, ITT) was 21.00. For the same molecule, the “VASPID, Mean” value (7 hours after Time 0, ITT) was 38.35, the “VASPID, Median” value (7 hours after Time 0, ITT) was 44.00 and the “VAS pain intensity score, Mean” value (8 hours after Time 0, ITT) was 35.02. The “VAS pain intensity score, Median” value (8 hours after Time 0, ITT) was 22.0, the “VASPID, Mean” value (8 hours after Time 0, ITT) was 38.88 and the “VASPID, Median” value (8 hours after Time 0, ITT) was 49.00. For the same molecule, the “VAS pain intensity score, Mean” value ([…] after Time 0, ITT) was 43.98, the “VAS pain intensity score, Median” value ([…] after Time 0, ITT) was 48.00 and the “VASPID, Mean” value ([…] after Time 0, ITT) was 29.92. The “VASPID, Median” value ([…] after Time 0, ITT) was 26.00 and the “Time point from which mean VASPID was statistically significantly greater and mean VAS pain intensity less than placebo” value (onward after Time 0) was ≥ 30 min.
